Data published in patent publication US7625948B2, “Ester compound and medicinal use thereof” (Japan Tobacco Inc., priority 2002, dated 2009).
Like-named read-outs stand apart in the source and are kept apart here.

What was measured:
HepG2 cells = experiment: Test Example 2: inhibition of apolipoprotein B secretion from HepG2 cells, ELISA (also used for metabolites in Test Example 8); type: cell-based; conditions: Homo sapiens
In short: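 HepG2 cells cultured 24 h, then exposed 24 h to compounds or metabolites in medium with 0.5% DMSO. Secreted apo B in supernatant quantified by sandwich ELISA (HRP, ABTS, 405 nm) against purified human apo B standard; % inhibition vs DMSO group, IC50 derived.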

[1] = molecular target: T1, Microsomal triglyceride transfer protein (MTP) from bovine liver (Bos taurus, UniProt P55156); experiment: Test Example 1: inhibition of interliposomal triglyceride (TG) transfer activity by MTP (also used for metabolites in Test Example 8); type: biochemical
T1 construct: from tissue; host or cells: bovine liver
T1 sequence (P55156 12-887): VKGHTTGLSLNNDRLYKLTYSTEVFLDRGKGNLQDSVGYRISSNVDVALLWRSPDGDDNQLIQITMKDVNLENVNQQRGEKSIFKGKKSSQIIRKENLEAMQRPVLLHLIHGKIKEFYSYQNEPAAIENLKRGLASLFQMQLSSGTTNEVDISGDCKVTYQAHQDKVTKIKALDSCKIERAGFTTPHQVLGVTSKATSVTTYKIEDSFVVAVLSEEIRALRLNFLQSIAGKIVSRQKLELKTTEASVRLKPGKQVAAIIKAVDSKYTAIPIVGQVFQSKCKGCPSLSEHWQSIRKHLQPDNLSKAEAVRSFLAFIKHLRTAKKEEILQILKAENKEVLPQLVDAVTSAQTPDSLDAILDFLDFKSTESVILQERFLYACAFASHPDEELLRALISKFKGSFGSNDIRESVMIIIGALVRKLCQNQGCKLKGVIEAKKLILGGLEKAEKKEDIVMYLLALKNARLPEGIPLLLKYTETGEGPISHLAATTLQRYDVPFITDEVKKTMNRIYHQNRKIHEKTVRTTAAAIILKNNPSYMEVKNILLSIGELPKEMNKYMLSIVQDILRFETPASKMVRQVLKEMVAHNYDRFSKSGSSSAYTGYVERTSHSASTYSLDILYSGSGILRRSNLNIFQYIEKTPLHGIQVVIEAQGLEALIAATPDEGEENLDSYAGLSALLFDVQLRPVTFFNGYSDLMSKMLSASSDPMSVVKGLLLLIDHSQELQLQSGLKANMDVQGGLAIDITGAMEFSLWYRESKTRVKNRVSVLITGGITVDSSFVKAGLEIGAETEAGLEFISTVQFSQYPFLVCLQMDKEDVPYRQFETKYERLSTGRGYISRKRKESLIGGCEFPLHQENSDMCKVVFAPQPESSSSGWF
T1 sequence (P05307 21-510 partner): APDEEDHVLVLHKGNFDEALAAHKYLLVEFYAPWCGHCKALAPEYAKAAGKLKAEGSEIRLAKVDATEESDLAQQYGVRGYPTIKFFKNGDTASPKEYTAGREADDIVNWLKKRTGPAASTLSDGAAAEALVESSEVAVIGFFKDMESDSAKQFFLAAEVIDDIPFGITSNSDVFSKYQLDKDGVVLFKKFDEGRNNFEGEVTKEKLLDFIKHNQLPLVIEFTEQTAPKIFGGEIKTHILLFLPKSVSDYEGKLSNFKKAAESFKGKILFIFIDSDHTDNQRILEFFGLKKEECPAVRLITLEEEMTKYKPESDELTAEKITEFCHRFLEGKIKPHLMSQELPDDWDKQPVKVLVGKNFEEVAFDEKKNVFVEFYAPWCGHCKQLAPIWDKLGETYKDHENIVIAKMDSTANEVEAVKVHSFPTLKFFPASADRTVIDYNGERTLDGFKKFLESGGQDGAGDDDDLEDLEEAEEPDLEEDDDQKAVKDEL
Description: Inhibition of Interliposomal Triglyceride (TG) Transfer Activity by MTP
Microsomal triglyceride transfer protein (MTP) from bovine liver was partially purified in such a way described below. A buffer (50 mM Tris, 250 mM sucrose, 1 mM EDTA, 0.02% NaN3 (pH 7.4)) for making a homogenate preparation was added to bovine liver, and the mixture was homogenated under ice-cooling, then centrifuged at 10,000×g (4° C., 30 minutes). The supernatant was adjusted to pH 5.1 with hydrochloric acid, and stirred for 30 minutes. The solution was further centrifuged at 10,000×g (4° C., 30 minutes), and 1 mM Tris buffer was added to the precipitated residue, and the mixture was adjusted to pH 8.6 with sodium hydroxide. After addition of 2.7M ammonium sulfate solution, the mixture was stirred for 30 minutes, then centrifuged at 10,000×g (4° C., 40 minutes). The resulting supernatant was served as a crude extraction fraction of MTP and stored at −80° C. under freezing. In its practical use, the crude extraction fraction of MTP was purified by column chromatography on diethylaminoethyl (DEAE) Sepharose using FPLC (Fast Performance Liquid Chromatography) system, and the purified MTP was used for the test.
Small unilamellar-vesicle (SUV) liposome (donor, 0.25 mol % triolein, 5 mol % cardiolipin) labeled with ^14C-triolein and non-labeled SUV liposome (acceptor, 0.25 mol % triolein) were prepared. A fixed amount of donor and acceptor, and MTP were mixed with a sample dissolved in DMSO or with DMSO. The mixture was incubated in a 15 mM Tris hydrochloride buffer (pH 7.4) containing 40 mM sodium chloride, 1 mM EDTA (ethylenediaminetetraacetic acid), 0.02% NaN3 and 0.5% bovine serum albumin at 37° C. for one hour. After completion of the incubation, a suspension of DEAE cellulose (50% v/v) in 15 mM Tris hydrochloride buffer (pH 7.4) was added to the above solution, and the mixture was centrifuged to separate the donor and the acceptor. The radioactivity in the acceptor was measured by liquid scintillation counter. The value obtained by subtracting the radioactivity in the blank from the amount of radioactivity in the acceptor of a DMSO group was determined as MTP-mediated TG transfer activity, and it was compared with the value obtained by subtracting the radioactivity in the blank from the radioactivity in a sample group. The blank was prepared by adding 15 mM Tris-HCl buffer (pH 7.4) in place of MTP. Inhibition rate (%) was calculated from the values obtained according to the following equation.
Inhibition rate (%)=100×(1 minus ((radioactivity of sample group minus radioactivity of blank group)/(radioactivity of DMSO group minus radioactivity of blank group))).
50% Inhibition rate (IC50) was determined on the basis of the above equation.
Inhibitory Activity on MTP and apo B Secretion Inhibition by Metabolites
In a similar manner to Test Examples 1 and 2, the activity of metabolites was assayed.

[2] = 24 hours, apo B in supernatant by ELISA, read-out: Test Example 2 Inhibition of apo B secretion IC50
[3] = MTP-mediated 14C-triolein transfer between liposomes, 37° C., one hour, read-out: Test Example 1 MTP inhibition IC50

SMILES	IC50 (HepG2 cells; [2]) [nM]	IC50 [1, 3] [nM]	IC50 (HepG2 cells; main metabolites of the compounds (Test Example 8), read-out: Inhibition of apo B secretion IC50) [nM]	IC50 ([1]; main metabolites of the compounds (Test Example 8), read-out: MTP inhibition IC50) [nM]
CCCOC(=O)C(COC(=O)Cc1ccc(NC(=O)c2ccccc2-c2ccc(C(F)(F)F)cc2)cc1)(C(=O)OCCC)c1ccccc1 [Example 1-62]	46	5	–	–
CCOC(=O)C(COC(=O)Cc1ccc(NC(=O)c2ccccc2-c2ccc(OC)cc2)cc1)(C(=O)OCC)c1ccccc1 [Example 1-47]	750	4.5	–	–
CCOC(=O)C(COC(=O)Cc1ccc(NC(=O)c2ccccc2-c2ccc(C(F)(F)F)cc2)cc1)(C(=O)OCC)c1cccnc1 [Example 1-38]	320	6	–	–
CCNC(=O)C(CCOC(=O)c1ccc(OC(=O)c2ccccc2-c2ccc(C(F)(F)F)cc2)cc1)(C(=O)NCC)c1ccccc1 [Example 6-21]	920	9.8	–	–
CCNC(=O)C(COC(=O)Cc1ccc(NC(=O)c2ccccc2-c2ccc(Cl)c(Cl)c2)cc1)(C(=O)NCC)c1ccccc1 [Example 1-71]	120	1.8	–	–
CCNC(=O)C(CCOC(=O)Cc1cccc(NC(=O)c2ccccc2-c2ccc(C(F)(F)F)cc2)c1)(C(=O)NCC)c1ccccc1 [Example 5-4]	57	2.4	–	–
CCNC(=O)C(COC(=O)Cc1ccc(NC(=O)c2ccccc2Oc2ccccc2)cc1)(C(=O)NCC)c1ccccc1 [Example 1-51]	530	0.96	–	–
CCCNC(=O)C(CCOC(=O)Cc1ccc(NC(=O)c2ccccc2-c2ccc(C(F)(F)F)cc2)cc1)(C(=O)NCCC)c1ccccc1 [Example 1-49]	5.3	20	–	–
CCOC(=O)C(COC(=O)Cc1ccc(NC(=O)c2ccccc2-c2ccc(C(F)(F)F)cc2)cc1)(C(=O)OCC)c1ccccn1 [Example 1-37]	47	3.5	–	–
CCOC(=O)C(CCOC(=O)Cc1cccc(NC(=O)c2ccccc2-c2ccc(C(F)(F)F)cc2)c1)(C(=O)OCC)c1ccccc1 [Example 5-3]	86.5	6.2	–	–
CCOC(=O)C(COC(=O)Cc1ccc(NC(=O)c2ccccc2-c2ccc(C(F)(F)F)cc2)cc1C(F)(F)F)(C(=O)OCC)c1ccccc1 [Example 1-34]	100	23	–	–
O=C(N[C@H]1CC[C@@H](C(=O)OCCC2(C(=O)NCC(F)(F)F)c3ccccc3-c3ccccc32)CC1)c1ccccc1-c1ccc(C(F)(F)F)cc1 [Example 7-2]	26	2.46	–	–
CCOC(=O)C(COC(=O)Cc1ccc(N(C)C(=O)c2ccccc2-c2ccc(C(F)(F)F)cc2)cc1)(C(=O)OCC)c1ccccc1 [Example 1-4, 2-(2-{4-[Methyl-(4′-trifluoromethylbiphenyl-2-carbonyl)amino]phenyl}acetoxymethyl)-2-phenylmalonic acid diethyl ester]	190	3.4	–	–
CCOC(=O)C(COC(=O)Cc1ccc(NC(=O)c2ccccc2-c2ccc(C(F)(F)F)cc2)c(C(F)(F)F)c1)(C(=O)OCC)c1ccccc1 [Example 1-40]	2.1	6.9	–	–
CCOC(=O)C(COC(=O)Cc1ccc(NC(=O)c2ccccc2-c2ccc(C(F)(F)F)cc2)cc1C)(C(=O)OCC)c1ccccc1 [Example 1-27]	26	7	–	–
O=C(Cc1ccc(OC(=O)c2ccccc2-c2ccc(C(F)(F)F)cc2)cc1)OCC(C(=O)NCC(F)(F)F)(C(=O)NCC(F)(F)F)c1ccccc1 [Example 1-28]	640	35	–	–
O=C(Cc1ccc(NC(=O)c2ccccc2-c2ccc(C(F)(F)F)cc2)cc1)OCC(C(=O)NC1CCCCC1)(C(=O)NC1CCCCC1)c1ccccc1 [Example 1-23]	63	54	–	–
CCCNC(=O)C(CCOC(=O)Cc1cccc(NC(=O)c2ccccc2-c2ccc(C(F)(F)F)cc2)c1)(C(=O)NCCC)c1ccccc1 [Example 5-5]	5	4.5	–	–
CCNC(=O)C(CO)(C(=O)NCC)c1ccccc1	–	–	> 10000	> 1000
CCOC(=O)C(CCOC(=O)Cc1cccc(NC(=O)c2ccccc2-c2ccc(C(F)(F)F)cc2)c1C)(C(=O)OCC)c1ccccc1 [Example 5, 2-[2-(2-{2-methyl-3-[(4′-trifluoromethylbiphenyl-2-carbonyl)amino]phenyl}acetoxy)ethyl]-2-phenylmalonic acid diethyl ester]	19	3.1	–	–
O=C(Cc1ccc(NC(=O)c2ccccc2-c2ccccc2)cc1)OCC(C(=O)NCC(F)(F)F)(C(=O)NCC(F)(F)F)c1ccccc1 [Example 1-32]	720	8.6	–	–
CC(C)CCNC(=O)C(COC(=O)Cc1ccc(NC(=O)c2ccccc2-c2ccc(C(F)(F)F)cc2)cc1)(C(=O)NCCC(C)C)c1ccccc1 [Example 1-67]	28	27	–	–
CCOC(=O)C(COC(=O)Cc1ccc(NC(=O)c2ccccc2-c2ccc(C(F)(F)F)cc2)c(OC)c1)(C(=O)OCC)c1ccccc1 [Example 3-4]	13	2.1	–	–
CCNC(=O)C(COC(=O)Cc1ccc(NC(=O)c2ccccc2-c2ccc(C(F)(F)F)cc2)c(C(=O)N(C)C)c1)c1ccccc1 (centres unmarked) [Example 2-21]	8.9	1.8	–	–
CCOC(=O)C(COC(=O)Cc1ccc(NC(=O)c2ccccc2-c2ccc(C(F)(F)F)cc2)cc1)(C(=O)OCC)C1CCCCC1 [Example 1-31]	61	84.5	–	–
CCNC(=O)C(CCCOC(=O)Cc1cccc(NC(=O)c2ccccc2-c2ccc(C(F)(F)F)cc2)c1C)(C(=O)NCC)c1ccccc1 [Example 5-10]	300	6.2	–	–
CCOC(=O)C(CCOC(=O)c1ccc(NC(=O)c2ccccc2-c2ccc(C(F)(F)F)cc2)cc1)(C(=O)OCC)c1ccccc1 [Example 6-14]	87	6.3	–	–
CCOC(=O)C(COC(=O)Cc1ccc(NC(=O)c2ccccc2-c2cccc(C(F)(F)F)c2)cc1)(C(=O)OCC)c1ccccc1 [Example 1-53]	860	0.43	–	–
